Source: patent US20220380383A1, “NEUROPROTECTIVE PDI MODULATING SMALL MOLECULES AND METHODS OF USE THEREOF” (THE TRUSTEES OF COLUMBIA UNIVERSITY IN THE CITY OF NEW YORK, priority 2018, published 2022)
“Also recorded” adds a separate entry of the source.

Assays:
[1] = tested on: striatal medium spiny neurons in brain slice explants co-transfected with YFP and mHTT; test: HD brain slice assay; assay type: cell-based, rat
Procedure: Resonances with large chemical shifts are labeled in green. Rat coronal brain slice explants co-transfected with YFP and Tau-4R (FIG. 16B) or striatal brain slice explants co-transfected with YFP and mHTT (FIG. 16C) were treated with LC-43 or DMSO carrier-only for 3 days. The respective regions of each brain slice were then scored for numbers of healthy (FIG. 16B) pyramidal or (FIG. 16C) medium spiny neurons remaining. Data are normalized to the negative control condition set to 100% and plotted as means±SEM. In FIG. 16D, The confocal images shown are maximal z-stacks of 0.5 μm steps (˜20 images per stack). (Bottom) Reduction of neuronal redox state by LC-43. Left, Primary neurons were co-transfected with mCherry (to positively identify transfected neurons) and the genetically encoded ratiometric redox reporter roGFP2. Four days later, the culture medium was changed into an identical formulation except without conventional antioxidant additives. […]
Brain slice explants were prepared and transfected as previously described (Reinhart et al., 2011). […] Striatal medium spiny neurons (MSNs) expressing YFP were visualized under fluorescence microscopy and identified based on their location within brain slices and their characteristic morphology.

five isoforms of CYP450 = test: CYP450 inhibition, five isoforms; assay type: in vitro ADME
PDI = PDI (Homo sapiens, UniProt P07237); test: Enzymatic assay for inhibition of PDI using insulin as substrate; assay type: biochemical
[2] = tested on: cortical pyramidal neurons in rat coronal brain slice explants co-transfected with YFP and Tau-4R; test: AD brain slice model (Tau-4R); assay type: cell-based
Source text: The cortical regions of each brain slice were then scored for numbers of healthy pyramidal neurons remaining. Data are plotted as means±SEM. Graph represents an average of 3 independent experimental runs. Significant difference is denoted with * with respect to the Tau-4R condition by ANOVA followed by Dunnett's post hoc comparison test at p<0.05.
To see if the mechanism of LOC14 protection can ameliorate other neurodegenerative disease phenotypes, we used a brain slice model of Alzheimer's disease (AD) in which the degeneration of cortical pyramidal neurons is induced via transfected tau protein containing four repeats of the microtubulin-binding domain (Tau-4R). Rat coronal brain slice explants were co-transfected with YFP and Tau-4R and treated with LOC14, benzoisothiazolone, or DMSO vehicle-only for 3 days. The cortical region of each brain slice was then scored for number of healthy pyramidal neurons remaining.

Potassium Channel hERG = Potassium Channel hERG (Homo sapiens, UniProt Q12809); test: in vitro
Source text: Additionally, we tested LOC14 in CEREP's Safety47 panel, an in vitro pharmacological profiling to determine off-target liabilities that might exist against 47 human targets associated with safety issues (Table 3 and Table 4).

parental ST14A cells = test: Rescue of parental ST14A cells (39° C., serum starved, CellTiter-Glo); assay type: cell-based, rat; settings: 48 hours
Source text: (§1) Having elucidated the molecular mechanism of LOC14's binding to PDI, we next tested whether PDI modulation with LOC14 would be effective in neurodegenerative disease models. First, we evaluated LOC14's neuroprotection in rat neuron-like PC12 cells stably transfected with an inducible plasmid for truncated mutant huntingtin protein (mHTT^Q103). […] We next evaluated the activity of LOC14 in cells that more closely represent the medium-size spiny neurons affected in Huntington Disease patients. We used rat embryonic day 14 striatal neuronal cells (ST14A) immortalized by transduction of temperature-sensitive SV40 large T antigen (Cattaneo and Conti, 1998; Ehrlich et al. 2001; Rigamonti et al. 2000). Under serum deprivation and at 39° C., where large T antigen is degraded, ST14A cells undergo cell death within 48-72 hours. This death was rescued by treatment with LOC14 (FIG. 13B).

ROCK1 = target: T1, ROCK1 (Homo sapiens, UniProt Q13464); test: Safety47 panel kinase ROCK1; assay type: biochemical; settings: Inhibitor mode; 3 μM
T1 construct: CEREP (CRO, Safety47 panel)
Source text: (§2) LOC14 was also submitted for testing in CEREP's Safety47 panel. CEREP is a CRO specializing in preclinical research, discovery and development of new pharmaceutical drugs.

INSR = target: T2, INSR (Homo sapiens, UniProt P06213); test: Safety47 panel kinase INSR; assay type: biochemical; settings: Inhibitor mode; 3 μM
T2 construct: CEREP (CRO panel)
Source text: as §2

PDE4D2 = target: T3, PDE4D2 (Homo sapiens, UniProt Q08499); test: Safety47 panel non-kinase enzyme PDE4D2; assay type: biochemical; settings: Inhibitor mode; 3 μM
T3 construct: CEREP (CRO panel)
Source text: as §2

Sigma σ1 = Sigma σ1 (Homo sapiens, UniProt Q99720); test: Off-target panel, Sigma σ1; assay type: binding; settings: Conc. 3 μM
COX1 = target: T4, COX1 (Homo sapiens, UniProt P23219); test: Safety47 panel non-kinase enzyme COX1; assay type: biochemical; settings: Inhibitor mode; 3 μM
T4 construct: CEREP (CRO panel)
Source text: as §2

[3] = target: Transporter, Norepinephrine (NET) (Homo sapiens, UniProt P23975); test: Off-target panel, Norepinephrine transporter; assay type: binding; settings: Conc. 3 μM
[4] = target: Serotonin (5-Hydroxytryptamine) 5-HT2B (Homo sapiens, UniProt P41595); test: Off-target panel, Serotonin 5-HT2B; assay type: binding; settings: Conc. 3 μM
PDE3A = target: T5, PDE3A (Homo sapiens, UniProt Q14432); test: Safety47 panel non-kinase enzyme PDE3A; assay type: biochemical; settings: Inhibitor mode; 3 μM
T5 construct: CEREP (CRO panel)
Source text: as §2

hERG = target: T6, hERG (Homo sapiens, UniProt Q12809); test: Safety47 panel ion channel hERG; assay type: cell-based; settings: Blocker mode; 3 μM
T6 construct: CEREP (CRO panel)
Source text: as §2

Cannabinoid CB1 = Cannabinoid CB1 (Homo sapiens, UniProt P21554); test: Off-target panel, Cannabinoid CB1; assay type: binding; settings: Conc. 3 μM
ST14A mHTTQ120 cells = test: Rescue of ST14A mHTTQ120 cells (39° C., serum starved, CellTiter-Glo); assay type: cell-based, rat; settings: 48 hours
Source text: as §1

SERT = target: T7, SERT (Homo sapiens, UniProt P31645); test: Safety47 panel transporter SERT; assay type: cell-based; settings: Blocker mode; 3 μM
T7 construct: CEREP (CRO panel)
Source text: as §2

T7 sequence (P31645 whole entry): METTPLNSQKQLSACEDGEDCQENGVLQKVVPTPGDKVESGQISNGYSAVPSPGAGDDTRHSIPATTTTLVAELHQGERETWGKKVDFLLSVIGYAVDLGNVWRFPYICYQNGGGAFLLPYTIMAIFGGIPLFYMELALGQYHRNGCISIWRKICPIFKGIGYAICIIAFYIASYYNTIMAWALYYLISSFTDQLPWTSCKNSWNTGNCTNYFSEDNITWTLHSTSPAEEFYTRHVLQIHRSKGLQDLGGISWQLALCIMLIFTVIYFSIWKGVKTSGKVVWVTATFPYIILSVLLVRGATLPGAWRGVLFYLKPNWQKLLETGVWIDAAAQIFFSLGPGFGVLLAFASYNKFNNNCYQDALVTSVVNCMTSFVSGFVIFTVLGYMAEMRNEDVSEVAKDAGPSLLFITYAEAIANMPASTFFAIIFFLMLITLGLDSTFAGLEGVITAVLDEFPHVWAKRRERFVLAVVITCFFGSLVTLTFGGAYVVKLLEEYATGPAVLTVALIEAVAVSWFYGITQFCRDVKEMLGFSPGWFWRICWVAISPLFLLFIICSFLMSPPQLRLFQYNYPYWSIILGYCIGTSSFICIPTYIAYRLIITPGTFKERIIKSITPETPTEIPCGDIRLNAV
Sequence of Serotonin (5-Hydroxytryptamine) 5-HT2B (P41595 whole entry): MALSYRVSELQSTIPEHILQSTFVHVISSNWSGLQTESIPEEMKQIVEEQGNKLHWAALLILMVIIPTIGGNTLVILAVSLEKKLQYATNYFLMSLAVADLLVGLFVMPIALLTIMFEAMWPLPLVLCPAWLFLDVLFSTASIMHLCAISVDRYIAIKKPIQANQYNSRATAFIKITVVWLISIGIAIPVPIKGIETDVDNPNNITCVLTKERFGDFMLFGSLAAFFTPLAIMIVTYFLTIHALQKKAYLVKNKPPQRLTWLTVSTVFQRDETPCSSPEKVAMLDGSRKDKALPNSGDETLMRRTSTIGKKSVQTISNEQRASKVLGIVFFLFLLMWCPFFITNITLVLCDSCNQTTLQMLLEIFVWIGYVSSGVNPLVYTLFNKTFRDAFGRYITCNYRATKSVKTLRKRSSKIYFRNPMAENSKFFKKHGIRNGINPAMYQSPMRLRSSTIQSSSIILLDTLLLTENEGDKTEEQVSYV
T5 sequence (Q14432 whole entry): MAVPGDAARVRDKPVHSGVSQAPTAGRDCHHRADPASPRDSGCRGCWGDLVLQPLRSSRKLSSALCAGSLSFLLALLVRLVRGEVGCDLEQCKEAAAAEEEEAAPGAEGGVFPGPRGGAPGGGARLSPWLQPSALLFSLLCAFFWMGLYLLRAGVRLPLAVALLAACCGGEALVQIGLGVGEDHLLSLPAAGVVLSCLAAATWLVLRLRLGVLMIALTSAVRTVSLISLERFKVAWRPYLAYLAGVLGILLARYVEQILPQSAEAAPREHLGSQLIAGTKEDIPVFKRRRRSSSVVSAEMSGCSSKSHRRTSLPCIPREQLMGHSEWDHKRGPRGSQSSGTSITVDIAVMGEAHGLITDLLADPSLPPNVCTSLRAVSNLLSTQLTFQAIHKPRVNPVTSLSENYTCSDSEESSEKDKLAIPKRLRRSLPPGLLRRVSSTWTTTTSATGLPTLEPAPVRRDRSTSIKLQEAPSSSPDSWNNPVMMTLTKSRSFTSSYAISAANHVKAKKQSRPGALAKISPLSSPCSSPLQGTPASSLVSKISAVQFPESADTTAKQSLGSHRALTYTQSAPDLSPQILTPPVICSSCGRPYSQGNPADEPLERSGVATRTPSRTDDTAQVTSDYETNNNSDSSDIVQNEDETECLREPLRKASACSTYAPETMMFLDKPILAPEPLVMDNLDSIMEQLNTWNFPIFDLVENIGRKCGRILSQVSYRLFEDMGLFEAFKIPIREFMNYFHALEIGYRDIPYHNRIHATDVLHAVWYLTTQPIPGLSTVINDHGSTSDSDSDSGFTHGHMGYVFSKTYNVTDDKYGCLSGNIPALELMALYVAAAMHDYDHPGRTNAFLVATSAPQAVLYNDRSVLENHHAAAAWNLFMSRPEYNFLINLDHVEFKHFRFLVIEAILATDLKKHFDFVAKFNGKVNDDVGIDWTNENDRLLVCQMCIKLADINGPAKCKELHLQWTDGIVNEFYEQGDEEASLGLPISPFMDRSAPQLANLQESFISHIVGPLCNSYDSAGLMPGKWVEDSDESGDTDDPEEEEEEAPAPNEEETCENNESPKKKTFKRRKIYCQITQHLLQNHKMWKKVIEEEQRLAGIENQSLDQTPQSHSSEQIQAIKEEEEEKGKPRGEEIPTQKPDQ
T1 sequence (Q13464 whole entry): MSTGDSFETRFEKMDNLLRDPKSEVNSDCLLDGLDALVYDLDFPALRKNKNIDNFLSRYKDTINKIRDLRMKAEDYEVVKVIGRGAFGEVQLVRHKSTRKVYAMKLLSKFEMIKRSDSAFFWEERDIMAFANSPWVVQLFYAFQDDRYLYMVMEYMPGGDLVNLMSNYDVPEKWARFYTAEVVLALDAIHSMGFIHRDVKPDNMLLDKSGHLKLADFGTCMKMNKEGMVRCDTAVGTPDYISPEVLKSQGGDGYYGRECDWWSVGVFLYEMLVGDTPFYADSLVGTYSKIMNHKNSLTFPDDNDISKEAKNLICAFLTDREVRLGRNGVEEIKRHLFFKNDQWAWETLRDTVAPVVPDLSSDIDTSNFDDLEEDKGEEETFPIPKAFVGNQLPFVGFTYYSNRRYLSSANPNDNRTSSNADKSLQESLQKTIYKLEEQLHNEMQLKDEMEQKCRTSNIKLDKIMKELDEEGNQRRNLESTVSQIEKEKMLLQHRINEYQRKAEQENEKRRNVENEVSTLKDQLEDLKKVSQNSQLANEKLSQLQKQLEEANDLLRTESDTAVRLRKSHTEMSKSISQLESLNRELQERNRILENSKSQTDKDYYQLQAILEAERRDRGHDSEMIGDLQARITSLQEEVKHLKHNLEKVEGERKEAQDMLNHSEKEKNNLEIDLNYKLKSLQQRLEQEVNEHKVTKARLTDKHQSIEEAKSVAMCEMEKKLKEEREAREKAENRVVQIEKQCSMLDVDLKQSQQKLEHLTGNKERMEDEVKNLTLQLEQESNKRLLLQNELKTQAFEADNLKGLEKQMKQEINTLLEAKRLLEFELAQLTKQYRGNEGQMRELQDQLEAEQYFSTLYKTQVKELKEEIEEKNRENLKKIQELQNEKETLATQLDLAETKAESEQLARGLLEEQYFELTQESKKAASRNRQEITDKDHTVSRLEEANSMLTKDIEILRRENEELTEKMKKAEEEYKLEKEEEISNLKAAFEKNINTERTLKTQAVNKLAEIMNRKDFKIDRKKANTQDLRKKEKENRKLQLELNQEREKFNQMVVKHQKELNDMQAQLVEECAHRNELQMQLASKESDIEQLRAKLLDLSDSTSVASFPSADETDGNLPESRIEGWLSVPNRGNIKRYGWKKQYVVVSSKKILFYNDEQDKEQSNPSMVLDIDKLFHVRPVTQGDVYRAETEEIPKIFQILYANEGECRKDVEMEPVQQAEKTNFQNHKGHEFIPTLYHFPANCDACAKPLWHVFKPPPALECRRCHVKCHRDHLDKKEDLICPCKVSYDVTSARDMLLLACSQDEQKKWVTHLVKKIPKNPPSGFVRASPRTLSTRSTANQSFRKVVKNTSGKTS
T2 sequence (P06213 28-1382): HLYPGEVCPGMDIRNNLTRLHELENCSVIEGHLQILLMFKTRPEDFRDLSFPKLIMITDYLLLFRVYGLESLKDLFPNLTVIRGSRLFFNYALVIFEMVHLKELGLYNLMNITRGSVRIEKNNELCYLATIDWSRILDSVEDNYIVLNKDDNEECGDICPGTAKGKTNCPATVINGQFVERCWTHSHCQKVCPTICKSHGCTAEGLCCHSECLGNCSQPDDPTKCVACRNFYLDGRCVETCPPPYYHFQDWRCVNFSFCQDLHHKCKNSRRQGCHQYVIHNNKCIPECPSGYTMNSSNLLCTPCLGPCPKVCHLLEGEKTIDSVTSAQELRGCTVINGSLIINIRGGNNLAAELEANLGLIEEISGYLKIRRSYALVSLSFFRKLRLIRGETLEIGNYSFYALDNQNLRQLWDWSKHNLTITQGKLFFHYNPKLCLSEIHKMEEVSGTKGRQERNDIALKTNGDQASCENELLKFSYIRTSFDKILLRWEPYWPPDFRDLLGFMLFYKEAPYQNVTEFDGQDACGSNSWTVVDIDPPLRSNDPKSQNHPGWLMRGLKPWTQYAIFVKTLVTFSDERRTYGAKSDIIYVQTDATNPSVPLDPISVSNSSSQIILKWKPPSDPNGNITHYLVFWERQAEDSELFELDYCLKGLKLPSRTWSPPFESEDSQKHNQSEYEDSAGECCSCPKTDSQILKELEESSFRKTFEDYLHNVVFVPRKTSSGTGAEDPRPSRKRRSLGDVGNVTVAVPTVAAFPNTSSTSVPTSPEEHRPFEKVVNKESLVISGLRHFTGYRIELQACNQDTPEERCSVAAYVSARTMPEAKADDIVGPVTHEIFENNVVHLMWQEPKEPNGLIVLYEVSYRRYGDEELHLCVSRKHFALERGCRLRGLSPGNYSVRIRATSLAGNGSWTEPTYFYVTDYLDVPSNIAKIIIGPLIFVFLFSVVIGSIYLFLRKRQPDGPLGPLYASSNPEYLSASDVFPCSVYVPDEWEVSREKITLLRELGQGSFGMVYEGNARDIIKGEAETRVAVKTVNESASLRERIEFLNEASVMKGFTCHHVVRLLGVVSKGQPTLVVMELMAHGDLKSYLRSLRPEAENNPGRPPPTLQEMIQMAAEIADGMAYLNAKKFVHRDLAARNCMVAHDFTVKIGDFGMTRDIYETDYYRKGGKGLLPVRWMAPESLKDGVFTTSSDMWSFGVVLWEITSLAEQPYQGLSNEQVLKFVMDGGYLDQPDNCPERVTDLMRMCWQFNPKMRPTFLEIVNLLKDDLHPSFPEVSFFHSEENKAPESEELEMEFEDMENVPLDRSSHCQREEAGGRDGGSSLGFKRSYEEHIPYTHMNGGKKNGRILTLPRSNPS

Structure (SMILES)	rescue of medium spiny neurons in HD brain slice ([1]; 3 days treatment)	concentration that provided peak rescue ([1]; HD brain slice assay) [µM]	inhibition of the five isoforms of CYP450 (five isoforms of CYP450)	inhibition of enzymatic (reductase) activity of PDI (PDI)	protection of pyramidal neurons in AD brain slice ([2]; 3 days treatment)	concentration that provided peak rescue ([2]; AD brain slice assay) [µM]	inhibition at 3 µM (Potassium Channel hERG) [%]	EC100 (parental ST14A cells) [nM]	Average (ROCK1)	Average (INSR)	Average (PDE4D2)	inhibition at 3 µM (Sigma σ1) [%]	Average (COX1)	inhibition at 3 µM [3] [%]	inhibition at 3 µM [4] [%]	Average (PDE3A)	Average (hERG)	inhibition at 3 µM (Cannabinoid CB1) [%]	EC100 (ST14A mHTTQ120 cells) [nM]	Average (SERT)
O=C(C1CC1)N1CCN(Cn2sc3c(F)cccc3c2=O)CC1 [LC-43]	dose-dependent rescue; also recorded: robust neuroprotection	10	does not show any inhibition	able to inhibit the enzymatic activity of PDI	dose-dependent rescue; also recorded: robust neuroprotection	10														
O=C(C1CC1)N1CCN(Cn2sc3ccccc3c2=O)CC1 [LOC14]							10	24	13.5	22.7	0.0	-8	1.4	24	36	0.0	5.9	-22	6	5.0
